Assay results from PMC5626944 (Frontiers in Pharmacology, 2017).
Where a name gives a salt, the structure may show the parent alone. Read-outs that look alike come from different tables or passages of the source. Values belong to the compound of their own block, whether it stands above or below them.

Legend:
α3β4 nAChRs = tested on: α3β4 nAChRs; parameters: method as in Carroll et al., 2015; conditions: ref Carroll et al., 2015; cited from earlier work
α7 nAChRs = tested on: α7 nAChRs; parameters: method as in Carroll et al., 2015; conditions: ref Carroll et al., 2015; cited from earlier work
WT mice [1] = experiment: Marble burying assay; assay type: in vivo, mouse; conditions: 0.3 mg/kg ip
CYP2C9 = experiment: Turnover by recombinantly expressed human cytochrome P450 isoforms; assay type: in vitro ADME; conditions: 100 pmol/mL enzyme, 37 °C
Description: (§1) S2 Table. In vitro metabolism of TC299423, compared w ith varenicline.
(§2) Human Rat microsomes Turnover by human cytochrome P450 isoforms […]
(§3) The assay mixtures (final incubation volume of 125 μL) in 0.255 M phosphate buffer with 0.575% (w/v) KCl (pH 7.4) contained PiB (1.0 μM), […] a recombinantly expressed cytochrome P450 enzyme preparation (1A2, 2C9, 2C19, 2D6, 3A4, and FMO3) at 100 pmol/mL. After a 10 min preincubation at 37 °C, the reaction was initiated by addition of 2.0 mM NADPH and incubated for 60 min. The reactions were terminated by the addition of two volumes of DMSO. Samples were subsequently centrifuged at 4,000 rpm for 10 min. From the resulting supernatant, 10 μ L was analyzed by liquid chromatography/tandem mass spectrometry (LC-MS/MS). Control experiments were performed by substituting the active enzyme preparation by cell preparations containing no recombinant human CYP. a, Data for clearance are given as μL /min/mg protein. […]
(§4) c, Data for cytochrome P450 turnover and for human flavin- containing monooxygenase 3 (FMO3) are given as percent decline over 60 min.

CYP1A2 = experiment: as above; assay type: in vitro ADME; conditions: 100 pmol/mL enzyme, 37 °C
Description: as §1, §2, §3, §4

CYP2C19 = experiment: as above; assay type: in vitro ADME; conditions: 100 pmol/mL enzyme, 37 °C
Description: as §1, §2, §3, §4

CYP3A4 = experiment: as above; assay type: in vitro ADME; conditions: 100 pmol/mL enzyme, 37 °C
Description: as §1, §2, §3, §4

CYP2D6 = experiment: as above; assay type: in vitro ADME; conditions: 100 pmol/mL enzyme, 37 °C
Description: as §1, §2, §3, §4

[2] = In vitro metabolism in microsomes; assay type: in vitro ADME; conditions: human microsomes
[3] = In vitro metabolism in microsomes; assay type: in vitro ADME; conditions: rat microsomes
α4β2* nAChRs = α4β2* nAChRs (Mus musculus, UniProt O70174+Q9ERK7); experiment: biochemical; assay type: biochemical; conditions: 10 μM
Sequence of α4β2* nAChRs (O70174 31-629): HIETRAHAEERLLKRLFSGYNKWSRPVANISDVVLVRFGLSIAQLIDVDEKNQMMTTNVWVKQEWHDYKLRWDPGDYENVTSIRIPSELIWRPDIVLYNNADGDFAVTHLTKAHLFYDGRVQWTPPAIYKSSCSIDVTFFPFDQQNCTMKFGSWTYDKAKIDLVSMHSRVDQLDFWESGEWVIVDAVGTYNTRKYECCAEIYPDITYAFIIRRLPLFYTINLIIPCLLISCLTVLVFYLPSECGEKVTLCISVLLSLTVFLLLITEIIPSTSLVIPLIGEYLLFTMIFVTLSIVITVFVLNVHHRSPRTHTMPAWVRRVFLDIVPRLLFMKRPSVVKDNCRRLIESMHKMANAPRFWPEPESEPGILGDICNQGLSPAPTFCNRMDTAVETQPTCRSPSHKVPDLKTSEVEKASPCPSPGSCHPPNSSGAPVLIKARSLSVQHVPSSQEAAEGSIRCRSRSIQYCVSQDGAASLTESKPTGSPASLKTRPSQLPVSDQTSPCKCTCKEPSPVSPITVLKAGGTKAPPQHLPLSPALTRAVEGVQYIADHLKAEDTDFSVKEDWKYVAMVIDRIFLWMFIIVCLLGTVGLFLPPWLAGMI
Sequence of α4β2* nAChRs (Q9ERK7 26-501): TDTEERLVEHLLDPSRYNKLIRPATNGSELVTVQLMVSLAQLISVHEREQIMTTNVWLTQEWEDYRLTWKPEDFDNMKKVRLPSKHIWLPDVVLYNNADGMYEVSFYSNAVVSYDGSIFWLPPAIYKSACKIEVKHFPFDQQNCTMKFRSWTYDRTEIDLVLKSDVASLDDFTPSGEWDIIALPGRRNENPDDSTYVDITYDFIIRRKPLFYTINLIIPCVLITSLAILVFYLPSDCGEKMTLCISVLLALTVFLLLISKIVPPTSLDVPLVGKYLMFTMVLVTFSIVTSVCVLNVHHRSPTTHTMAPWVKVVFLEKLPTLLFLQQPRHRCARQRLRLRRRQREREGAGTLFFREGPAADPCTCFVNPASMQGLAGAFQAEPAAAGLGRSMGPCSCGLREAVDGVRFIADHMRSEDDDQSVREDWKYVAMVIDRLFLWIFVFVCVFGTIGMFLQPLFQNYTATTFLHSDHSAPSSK
Description: (§5) Regions of interest were dissected from fresh mouse brains and homogenized in ice-cold isotonic sucrose (0.32 M), buffered with HEPES (5 mM, pH 7.5). The suspension was centrifuged at 12,000 × g for 20 min.
Superfusion proceeded at 0.7 mL/min for 10 min before stimulation with agonist for 20 s. Selected aliquots were perfused with α-CtxMII (50 nM) for 3 min immediately before stimulation. […] Fractions (∼0.1 mL) were collected into 96-well plates at 10 s intervals for 4 min (starting ∼1 min before stimulation).

α6β2* nAChRs = α6β2* nAChRs (Mus musculus, UniProt Q9ERK7+Q9R0W9); experiment: biochemical; assay type: biochemical; conditions: 10 μM
Sequence of α6β2* nAChRs (Q9R0W9 31-494): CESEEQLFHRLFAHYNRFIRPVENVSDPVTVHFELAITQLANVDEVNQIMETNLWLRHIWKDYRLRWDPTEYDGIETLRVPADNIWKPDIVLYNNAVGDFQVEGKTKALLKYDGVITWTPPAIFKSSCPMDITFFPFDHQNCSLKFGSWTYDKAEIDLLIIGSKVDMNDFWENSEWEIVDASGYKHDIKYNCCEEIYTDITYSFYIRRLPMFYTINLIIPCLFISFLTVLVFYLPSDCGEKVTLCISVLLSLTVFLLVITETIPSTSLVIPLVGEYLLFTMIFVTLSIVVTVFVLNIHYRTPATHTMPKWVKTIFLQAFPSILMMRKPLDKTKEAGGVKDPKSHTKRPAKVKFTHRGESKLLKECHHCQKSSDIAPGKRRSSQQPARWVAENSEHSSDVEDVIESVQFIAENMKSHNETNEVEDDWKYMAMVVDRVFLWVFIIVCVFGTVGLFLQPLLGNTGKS
Sequence of α6β2* nAChRs (Q9ERK7 26-501): as the sequence (Q9ERK7 26-501) above
Sequence of α6β2* nAChRs (Q8BMN3 31-464 partner): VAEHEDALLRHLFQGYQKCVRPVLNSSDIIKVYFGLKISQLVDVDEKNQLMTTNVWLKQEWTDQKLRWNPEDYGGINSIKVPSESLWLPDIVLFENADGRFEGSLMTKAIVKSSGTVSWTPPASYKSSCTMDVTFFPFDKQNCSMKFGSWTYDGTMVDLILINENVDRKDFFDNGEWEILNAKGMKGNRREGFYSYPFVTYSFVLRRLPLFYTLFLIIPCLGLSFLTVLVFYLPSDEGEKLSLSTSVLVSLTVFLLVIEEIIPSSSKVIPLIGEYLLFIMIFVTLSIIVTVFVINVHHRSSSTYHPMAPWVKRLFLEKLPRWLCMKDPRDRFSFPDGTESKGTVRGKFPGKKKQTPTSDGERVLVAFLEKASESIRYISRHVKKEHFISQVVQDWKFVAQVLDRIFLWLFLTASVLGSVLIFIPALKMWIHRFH
Description: as §5, with “min. The pellet was re-suspended in the appropriate uptake buffer ([Grady et al., 2001]; [Salminen et al., 2004]; [Marks et al., 2006]) and used immediately.” for “min.”
Superfusion was carried out at 22°C using a buffer containing: NaCl, 128 mM; KCl, 2.4 mM; CaCl2, 3.2 mM; MgSO4, 1.2 mM; KH2PO4, 1.2 mM; HEPES, 25 mM; glucose, 10 mM; ascorbic acid, 1 mM; pargyline, 0.01 mM; 0.1% BSA; nomifensine, 1 μM (to prevent the re-uptake of dopamine); atropine, 1 μM (to prevent muscarinic receptor activation); pH 7.5. Superfusion proceeded at 0.7 mL/min for 10 min before stimulation with agonist for 20 s. Selected aliquots were perfused with α-CtxMII (50 nM) for 3 min immediately before stimulation. This concentration of α-CtxMII was sufficient to inhibit α6β2^∗-nAChRs in the mouse striatum ([Salminen et al., 2004], [2007]). Fractions (∼0.1 mL) were collected into 96-well plates at 10 s intervals for 4 min (starting ∼1 min before stimulation). After adding 0.15 mL of Optiphase SuperMix scintillation cocktail, radioactivity was measured using a 1450 MicroBeta TriLux counter (Perkin Elmer Life Sciences).

WT and α6L9′S mice = experiment: Locomotor assay in a novel environment; assay type: in vivo, mouse; conditions: for Ambulatory activity in a novel environment: 0.5 μmol/kg ip (nicotine 0.08 mg/kg, TC299423 0.09 mg/kg)
Description: Mice were habituated to the experimental room for 2 h prior to the experiment. Horizontal locomotor activity was recorded using an infrared photobeam activity cage system (San Diego Instruments; San Diego, CA, United States). After habituating to the experimental room, mice were placed singly in a novel cage. Ambulations were recorded when two contiguous photobeams were broken in succession, preventing activity from being recorded by most sedentary animals. Ambulation events were measured for 45 min with four 15 s intervals per min. Mice were given a total of two intraperitoneal (ip) injections. First, mice were pre-injected with saline or 1 mg/kg mecamylamine before being placed in the activity cages.

WT mice [4] = experiment: Hot plate assay; assay type: in vivo, mouse; conditions: 0.3 mg/kg ip each, 55°C hot plate, p < 0.05
Description: Mice were again habituated to the experimental room for ≥2 h prior to testing. […] This apparatus is a heated metal plate, maintained at 55°C, enclosed by a clear acrylic plastic cylinder (∼10 cm in diameter), within which the mouse is free to move. […] If the mouse urinates during the assay, it is immediately removed from the hot plate. The time that the mouse remains on the hot plate prior to showing signs of discomfort is recorded. Doses were administered using a Latin-square crossover design. A day without testing occurred between each test.

Structure (SMILES): c1cc2c(cn1)[C@@H]1CC[C@H](CCC2)N1 [PHT, (+)-pyrido[3,4]homotropane]
EC50 (α3β4 nAChRs): 430 nM
EC50 (α7 nAChRs): 660 nM

Turnover by CYP2C9 (CYP2C9): 0 percent decline over 60 min
Turnover by CYP1A2 (CYP1A2): 7 percent decline over 60 min
Turnover by CYP2C19 (CYP2C19): 0 percent decline over 60 min
Turnover by CYP3A4 (CYP3A4): 50 percent decline over 60 min
Turnover by CYP2D6 (CYP2D6): 39 percent decline over 60 min
half-life [2]: 43 min
microsomal CLint ([2]; read-out: Clearance): 39 µL/min/mg
half-life [3]: 10 min
microsomal CLint ([3]; read-out: Clearance): 233 µL/min/mg
Structure (SMILES): c1cnc2cc3c(cc2n1)[C@@H]1CNC[C@H]3C1 [varenicline, Varenicline tartrate, reference compound]
Marbles buried compared with saline (WT mice [1]): significantly fewer marbles

Structure (SMILES): CN1CCC[C@H]1c1cccnc1 [nicotine, (L)-nicotine hydrogen tartrate]
Marbles buried compared with saline (WT mice [1]): significantly fewer marbles
Marbles buried compared with varenicline (WT mice [1]; p < 0.001): fewer marbles
α-CtxMII-resistant [3H]-dopamine release elicited (α4β2* nAChRs): 7.78 ± 0.83 units
α-CtxMII-sensitive [3H]-dopamine release elicited (α6β2* nAChRs): 3.63 ± 0.81 units
Ambulatory activity in a novel environment (WT and α6L9′S mice; WT mice): Neither TC299423 nor nicotine affected WT ambulation
Ambulatory activity in a novel environment (WT and α6L9′S mice; α6L9′S mice): dramatically increased the ambulatory activity
Antinociceptive effect compared with varenicline (WT mice [4]): significantly greater than that of varenicline

Structure (SMILES): CNC1(C)C2CCC(C2)C1(C)C (centres unmarked) [mecamylamine]
Effect of pre-injection on nicotine- and TC299423-induced increases in ambulation (WT and α6L9′S mice; α6L9′S mice, 1 mg/kg ip pre-injection): blocked
